Data reported in PubChem BioAssay (NCI).
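Test compounds were applied to cells in 96-well plates for 48 hours at 5 doses. GI50 marks 50% less growth. Definition used: TGI = concentration required for complete inhibition of growth.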

Assays:
Assay in all cases: NCI anticancer screen, dose series, 48 h
786-0 renal = system: 786-0 renal
A498 renal = system: A498 renal
A549 NSCLC = system: A549 NSCLC
ACHN renal = system: ACHN renal
BT-549 breast = system: BT-549 breast
CAKI-1 renal = system: CAKI-1 renal
CCRF-CEM leukemia = system: CCRF-CEM leukemia
COLO 205 colon = system: COLO 205 colon
DU-145 prostate = system: DU-145 prostate
EKVX NSCLC = system: EKVX NSCLC
HCC-2998 colon = system: HCC-2998 colon
HCT-116 colon = system: HCT-116 colon
HCT-15 colon = system: HCT-15 colon
HOP-62 NSCLC = system: HOP-62 NSCLC
HOP-92 NSCLC = system: HOP-92 NSCLC
HS 578T breast = system: HS 578T breast
HT29 colon = system: HT29 colon
IGROV1 ovarian = system: IGROV1 ovarian
KM12 colon = system: KM12 colon
LOX IMVI melanoma = system: LOX IMVI melanoma
M14 melanoma = system: M14 melanoma
MALME-3M melanoma = system: MALME-3M melanoma
MCF7 breast = system: MCF7 breast
MDA-MB-231 breast = system: MDA-MB-231 breast
MDA-MB-435 = system: MDA-MB-435
NCI-H226 lung = system: NCI-H226 lung
NCI-H460 lung = system: NCI-H460 lung
NCI-H522 lung = system: NCI-H522 lung
NCI/ADR-RES ovarian = system: NCI/ADR-RES ovarian
OVCAR-3 ovarian = system: OVCAR-3 ovarian
OVCAR-4 ovarian = system: OVCAR-4 ovarian
OVCAR-5 ovarian = system: OVCAR-5 ovarian
OVCAR-8 ovarian = system: OVCAR-8 ovarian
PC-3 prostate = system: PC-3 prostate
RPMI-8226 leukemia = system: RPMI-8226 leukemia
RXF 393 renal = system: RXF 393 renal
SF-268 CNS = system: SF-268 CNS
SF-295 CNS = system: SF-295 CNS
SF-539 CNS = system: SF-539 CNS
SK-MEL-2 melanoma = system: SK-MEL-2 melanoma
SK-MEL-28 melanoma = system: SK-MEL-28 melanoma
SK-MEL-5 melanoma = system: SK-MEL-5 melanoma
SK-OV-3 ovarian = system: SK-OV-3 ovarian
SN12C renal = system: SN12C renal
SNB-19 CNS = system: SNB-19 CNS
SNB-75 CNS = system: SNB-75 CNS
SW-620 colon = system: SW-620 colon
T-47D breast = system: T-47D breast
TK-10 renal = system: TK-10 renal
U251 CNS = system: U251 CNS
UACC-257 melanoma = system: UACC-257 melanoma
UACC-62 melanoma = system: UACC-62 melanoma
UO-31 renal = system: UO-31 renal
HL-60(TB) leukemia = system: HL-60(TB) leukemia
K-562 leukemia = system: K-562 leukemia
MOLT-4 leukemia = system: MOLT-4 leukemia
SR leukemia = system: SR leukemia

Work on `OC1CCN(CCCOc2c3ccccc3nc3c2oc2ccccc23)CC1` yielded a GI50 (786-0 renal) of 2300 nM, a TGI (786-0 renal) of 18000 nM and a GI50 (A498 renal) of 1730 nM. For the same compound, the TGI (A498 renal) was 3380 nM, the GI50 (A549 NSCLC) was 2540 nM and the TGI (A549 NSCLC) was 16400 nM. The GI50 (ACHN renal) was 800 nM, the TGI (ACHN renal) was 25200 nM and the GI50 (BT-549 breast) was 2800 nM. It also gave a TGI (BT-549 breast) of 8880 nM, a GI50 (CAKI-1 renal) of 1670 nM and a TGI (CAKI-1 renal) of 12900 nM. It also gave a GI50 (CCRF-CEM leukemia) of 2120 nM, a TGI (CCRF-CEM leukemia) of 16300 nM and a GI50 (COLO 205 colon) of 1060 nM. For the same compound, the TGI (COLO 205 colon) was 2830 nM, the GI50 (DU-145 prostate) was 3660 nM and the TGI (DU-145 prostate) was 23100 nM. It also gave a GI50 (EKVX NSCLC) of 2790 nM, a TGI (EKVX NSCLC) of 12900 nM and a GI50 (HCC-2998 colon) of 1460 nM. It also gave a TGI (HCC-2998 colon) of 3760 nM, a GI50 (HCT-116 colon) of 505 nM and a TGI (HCT-116 colon) of 12300 nM. The GI50 (HCT-15 colon) was 2020 nM, the TGI (HCT-15 colon) was 9730 nM and the GI50 (HOP-62 NSCLC) was 2320 nM. The TGI (HOP-62 NSCLC) was 11900 nM, the GI50 (HOP-92 NSCLC) was 853 nM and the TGI (HOP-92 NSCLC) was 4280 nM. For the same compound, the GI50 (HS 578T breast) was 2380 nM, the TGI (HS 578T breast) was 8830 nM and the GI50 (HT29 colon) was 1100 nM. For the same compound, the TGI (HT29 colon) was 3650 nM, the GI50 (IGROV1 ovarian) was 2610 nM and the TGI (IGROV1 ovarian) was 11300 nM. It also gave a GI50 (KM12 colon) of 2990 nM, a TGI (KM12 colon) of 49600 nM and a GI50 (LOX IMVI melanoma) of 626 nM. The TGI (LOX IMVI melanoma) was 3510 nM, the GI50 (M14 melanoma) was 2390 nM and the TGI (M14 melanoma) was 7890 nM. It also gave a GI50 (MALME-3M melanoma) of 1860 nM, a TGI (MALME-3M melanoma) of 3950 nM and a GI50 (MCF7 breast) of 2310 nM. The TGI (MCF7 breast) was 10100 nM, the GI50 (MDA-MB-231 breast) was 2370 nM and the TGI (MDA-MB-231 breast) was 11100 nM. The GI50 (MDA-MB-435) was 2310 nM, the TGI (MDA-MB-435) was 6790 nM and the GI50 (NCI-H226 lung) was 1900 nM. The TGI (NCI-H226 lung) was 4740 nM, the GI50 (NCI-H460 lung) was 1590 nM and the TGI (NCI-H460 lung) was 11100 nM. It also gave a GI50 (NCI-H522 lung) of 1570 nM, a TGI (NCI-H522 lung) of 4380 nM and a GI50 (NCI/ADR-RES ovarian) of 1030 nM. The TGI (NCI/ADR-RES ovarian) was 8100 nM, the GI50 (OVCAR-3 ovarian) was 3610 nM and the TGI (OVCAR-3 ovarian) was 24900 nM. For the same compound, the GI50 (OVCAR-4 ovarian) was 2140 nM, the TGI (OVCAR-4 ovarian) was 8630 nM and the GI50 (OVCAR-5 ovarian) was 2470 nM. For the same compound, the TGI (OVCAR-5 ovarian) was 9490 nM, the GI50 (OVCAR-8 ovarian) was 1810 nM and the TGI (OVCAR-8 ovarian) was 6710 nM. For the same compound, the GI50 (PC-3 prostate) was 2120 nM, the TGI (PC-3 prostate) was 7930 nM and the GI50 (RPMI-8226 leukemia) was 2470 nM. It also gave a TGI (RPMI-8226 leukemia) of 7460 nM, a GI50 (RXF 393 renal) of 1320 nM and a TGI (RXF 393 renal) of 3640 nM. For the same compound, the GI50 (SF-268 CNS) was 2530 nM, the TGI (SF-268 CNS) was 14800 nM and the GI50 (SF-295 CNS) was 2390 nM. It also gave a TGI (SF-295 CNS) of 10500 nM, a GI50 (SF-539 CNS) of 2020 nM and a TGI (SF-539 CNS) of 6400 nM. For the same compound, the GI50 (SK-MEL-2 melanoma) was 1930 nM, the TGI (SK-MEL-2 melanoma) was 3590 nM and the GI50 (SK-MEL-28 melanoma) was 1930 nM. The TGI (SK-MEL-28 melanoma) was 3810 nM, the GI50 (SK-MEL-5 melanoma) was 1770 nM and the TGI (SK-MEL-5 melanoma) was 3200 nM. It also gave a GI50 (SK-OV-3 ovarian) of 2560 nM, a TGI (SK-OV-3 ovarian) of 8700 nM and a GI50 (SN12C renal) of 1700 nM. The TGI (SN12C renal) was 13500 nM, the GI50 (SNB-19 CNS) was 2360 nM and the TGI (SNB-19 CNS) was 14800 nM. It also gave a GI50 (SNB-75 CNS) of 1860 nM, a TGI (SNB-75 CNS) of 4300 nM and a GI50 (SW-620 colon) of 825 nM. It also gave a TGI (SW-620 colon) of 11900 nM, a GI50 (T-47D breast) of 2510 nM and a TGI (T-47D breast) of 7270 nM. It also gave a GI50 (TK-10 renal) of 2410 nM, a TGI (TK-10 renal) of 7730 nM and a GI50 (U251 CNS) of 2140 nM. It also gave a TGI (U251 CNS) of 12200 nM, a GI50 (UACC-257 melanoma) of 1830 nM and a TGI (UACC-257 melanoma) of 3720 nM. The GI50 (UACC-62 melanoma) was 1860 nM, the TGI (UACC-62 melanoma) was 4430 nM and the GI50 (UO-31 renal) was 1180 nM. For the same compound, the TGI (UO-31 renal) was 3130 nM.
With `COc1ccc2[nH]cc(/C=N/Nc3ccnc4cc(Cl)ccc34)c2c1` the GI50 (A498 renal) was 1490 nM, the TGI (A498 renal) was 2830 nM and the GI50 (ACHN renal) was 346 nM. For the same compound, the TGI (ACHN renal) was 1070 nM, the GI50 (BT-549 breast) was 1680 nM and the TGI (BT-549 breast) was 3090 nM. It also gave a GI50 (CAKI-1 renal) of 1540 nM, a TGI (CAKI-1 renal) of 2910 nM and a GI50 (CCRF-CEM leukemia) of 304 nM. The TGI (CCRF-CEM leukemia) was 1120 nM, the GI50 (DU-145 prostate) was 729 nM and the TGI (DU-145 prostate) was 1980 nM. The GI50 (HCC-2998 colon) was 1670 nM, the TGI (HCC-2998 colon) was 3190 nM and the GI50 (HL-60(TB) leukemia) was 265 nM. For the same compound, the TGI (HL-60(TB) leukemia) was 859 nM, the GI50 (HS 578T breast) was 1990 nM and the TGI (HS 578T breast) was 4810 nM. It also gave a GI50 (HT29 colon) of 219 nM, a TGI (HT29 colon) of 482 nM and a GI50 (K-562 leukemia) of 300 nM. The TGI (K-562 leukemia) was greater than 100000 nM, the GI50 (KM12 colon) was 1650 nM and the TGI (KM12 colon) was 3920 nM. For the same compound, the GI50 (MALME-3M melanoma) was 1760 nM, the TGI (MALME-3M melanoma) was 3220 nM and the GI50 (MDA-MB-435) was 1670 nM. It also gave a TGI (MDA-MB-435) of 3060 nM, a GI50 (MOLT-4 leukemia) of 265 nM and a TGI (MOLT-4 leukemia) of 713 nM. It also gave a GI50 (NCI-H460 lung) of 202 nM, a TGI (NCI-H460 lung) of 409 nM and a GI50 (OVCAR-3 ovarian) of 1580 nM. For the same compound, the TGI (OVCAR-3 ovarian) was 3160 nM, the GI50 (OVCAR-5 ovarian) was 1490 nM and the TGI (OVCAR-5 ovarian) was 2840 nM. For the same compound, the GI50 (RPMI-8226 leukemia) was 271 nM, the TGI (RPMI-8226 leukemia) was 671 nM and the GI50 (SK-MEL-2 melanoma) was 1830 nM. For the same compound, the TGI (SK-MEL-2 melanoma) was 3480 nM, the GI50 (SK-MEL-5 melanoma) was 1650 nM and the TGI (SK-MEL-5 melanoma) was 3060 nM. It also gave a GI50 (SN12C renal) of 1600 nM, a TGI (SN12C renal) of 3000 nM and a GI50 (SNB-75 CNS) of 1560 nM. It also gave a TGI (SNB-75 CNS) of 2930 nM, a GI50 (SR leukemia) of 171 nM and a TGI (SR leukemia) of 4140 nM. For the same compound, the GI50 (SW-620 colon) was 186 nM, the TGI (SW-620 colon) was 379 nM and the GI50 (T-47D breast) was 1280 nM. The TGI (T-47D breast) was 3590 nM, the GI50 (TK-10 renal) was 1900 nM and the TGI (TK-10 renal) was 3350 nM. The GI50 (UO-31 renal) was 1470 nM and the TGI (UO-31 renal) was 2780 nM.
